# Columns and labels:
# [1] = tested on: A. planipennis; assay: Field trapping experiment 1 (2008), purple prism traps, Ontario; format: in vivo, Agrilus planipennis
# Experimental: Field trapping. Three trapping experiments were carried out in green ash plantations (F. pennsylvanica Marsch) with low-to-moderate A. planipennis populations about 40 km southeast of Sarnia, Ontario (42° 58′ 0 N, 82° 24′ 0 W) in 2008, 2009 and 2010. Trees at these sites were generally healthy in appearance with low or no signs of decline, and only a small number of trees had obvious signs/symptoms of infestation by A. planipennis. In Ontario sites, trees were 20-25 years old, 4-6 m tall, 10-15 cm in diameter, and spaced about 2 m apart within a row and 2.5 m between rows. In 2010, the trapping experiment was replicated at four sites in Michigan, USA, in addition to the sites in Ontario. […] Traps were checked every 2 weeks and A. planipennis were collected, counted and sexed.
# Experiment 1, conducted in Ontario in 2008, was designed to test for attractiveness of (3Z)-lactone (Bartelt et al. 2007), alone and in combination with two types of host volatiles: bark sesquiterpenes (Crook et al. 2008) and a binary blend of green leaf volatiles ((3Z)-hexenol and (2E)-hexenol) (Poland et al. 2005, de Groot et al. 2008). […] We selected Phoebe oil because it contained two additional sesquiterpenes that had been detected in ash trees and appeared to be more attractive than Manuka oil (Crook et al. 2008) and the (3Z)-hexenol and (2E)-hexenol combination based on results from de Groot et al. (2008). […]
# [2] = tested on: A. planipennis antennae; assay: GC-EAD analysis; parameters: species or system Agrilus planipennis; conditions: synthetic mixture of (3E)- and (3Z)-lactones
# Experimental: A Varian CP-3380 gas chromatograph with FID detector was modified for use with a GC-EAD signal recording device (IDAC-232). EAG data were analyzed using Syntech GC-EAD software v.2.6 (SYNTECH, The Netherlands). The column used for analysis was a Supelco SPB-5 capillary (30 m×0.32 mm×0.25 μm film) in the splitless mode with helium as carrier gas. The injection port was at 220° C. and the oven temperature was programmed from 70° C., held for 1 min and then increased at 10° C./min to 240° C. and held for 30 min. A number of GC-EAD runs on male and female volatiles were carried out. Both the (3Z)-lactone and (3E)-lactone were diluted to 10 μg/ml in hexane; 1 μl of diluted pheromone was injected for each GC-EAD run.
# Ten nanograms was injected for the GC-EAD analysis consisting of 90% (3Z)-lactone and 10% (3E)-lactone using a DB-1 (15 m×0.25 mm ID, 1 μm film) capillary column (J&W Scientific, Folsom, Calif.). The GC oven temperature program was 50° C. for 1 min, then increased at 20° C./min and held at 280° C. for 2 min. The GC-EAD responses of five male and five female EAB antennae were analyzed.
SMILES,trap captures compared to unbaited controls [1],GC-FID/EAD responses of male and female antennae [2]
"O=C1C/C=C\CCCCCCCCO1 [(3Z)-lactone, (3Z)-dodecen-12-olide]",not significantly attractive,significant responses
"O=C1C/C=C/CCCCCCCCO1 [(3E)-lactone, (3E)-dodecen-12-olide]",–,significant responses
